Reference: patent US5288751A, “[(Substituted) phenyalkyl]furylalkynyl-and [substituted) phenyalkyl] thienylalkynyl-N-hydroxyurea inhibitors or leukotriene biosynthesis” (Abbott Laboratories, priority 1992, dated 1994)

Test system: Stimulated LTB4 Formation in Human Whole Blood
Assay: Calcium ionophore (A23187)-induced LTB4 biosynthesis in human whole blood (in vitro leukotriene biosynthesis inhibition)
Format: cell-based
Conditions: human heparinized whole blood; 15 min preincubation at 37° C.; A23187 8.3 μM, 30 minutes
Procedure: Inhibition of leukotriene biosynthesis was evaluated in an assay, involving calcium ionophore-induced LTB4 biosynthesis expressed human whole blood. Human heparinized whole blood was preincubated with test compounds or vehicle for 15 min at 37° C. followed by calcium ionophore A23187 challenge (final concentration of 8.3 μM) and the reaction terminated after 30 minutes by adding two volumes of methanol containing prostaglandin B2 as an internal recovery standard. The methanol extract was analyzed for LTB4 using a commercially available radioimmunoassay.
In Vitro Inhibitory Potencies Against Stimulated LTB4 Formation

Question: With `CC(C#Cc1ccc(Cc2ccc(F)cc2)o1)N(O)C(N)=O` (stereo not drawn) [Example 1, N-{3-[5-(4-Fluorophenylmethyl)fur-2-yl]-1-methyl-2-propynyl}-N-hydroxyurea] as the compound, how does the IC50 read?
Answer: 0.06 µM

Question: `CC(C#Cc1ccc(/C=C/c2ccc(F)cc2)o1)N(O)C(N)=O` (stereo not drawn) [Example 5, N-[4-(5-{2-[4-Fluorophenyl]ethenyl}fur-2-yl)-1-methyl-2-propynyl]-N-hydroxyurea] was tested. Which IC50 did it give?
Answer: 0.62 µM

Question: For `CC(C#Cc1ccc(/C=C/c2ccccn2)o1)N(O)C(N)=O` (stereo not drawn) [Example 7, N-Hydroxy-N-[4-(5-{2-[2-pyridyl]ethenyl}fur-2-yl)-1-methyl-2-propynyl]urea], which IC50 is on record?
Answer: 0.35 µM

Question: With `Cc1ccc(/C=C/c2ccc(C#CC(C)N(O)C(N)=O)o2)cc1` (stereo not drawn) [Example 9, N-Hydroxy-N-[4-(5-{2-[5-methylphenyl]ethenyl}fur-2-yl)-1-methyl-2-propynyl]urea] as the compound, how does the IC50 read?
Answer: 0.3 µM

Question: Which IC50 does the source give for `CC(C#Cc1ccc(Cc2ccc(F)cc2)s1)N(O)C(N)=O` (stereo not drawn) [Example 12, N-{3-[5-(4-Fluorophenylmethyl)-2-thienyl]-1-methyl-2-propynyl}-N-hydroxyurea] here?
Answer: 0.07 µM

Question: Which IC50 does the source give for `C[C@H](C#Cc1ccc(Cc2ccc(F)cc2)s1)N(O)C(N)=O` [Example 13, (R)-N-{3-[5-(4-Fluorophenylmethyl)-2-thienyl]-1-methyl-2-propynyl}-N-hydroxyurea] here?
Answer: 0.07 µM

Same assay, conditions: human heparinized whole blood; A23187 8.3 μM, 30 minutes; test concentration not stated

Question: How did the “% inhibition of stimulated LTB4 formation in human whole blood” value (shortened to “% inhibition … in human whole blood”) turn out when `CC(C#Cc1ccc(C(=O)c2ccc(F)cc2)o1)N(O)C(N)=O` (stereo not drawn) [Example 2] was run?
Answer: 72%

Question: With `CC(C#Cc1ccc(/C=C/c2cccnc2)o1)N(O)C(N)=O` (stereo not drawn) [Example 4, N-Hydroxy-N-[4-(5-{2-[3-pyridyl]ethenyl}fur-2-yl)-1-methyl-2-propynyl]urea] as the compound, how does the “% inhibition … in human whole blood” value read?
Answer: 39%

Question: Which “% inhibition … in human whole blood” value does the source give for `CC(C#Cc1ccc(/C=C/c2ccccc2)o1)N(O)C(N)=O` (stereo not drawn) [Example 6, N-Hydroxy-N-[4-(5-{2-phenylethenyl}fur-2-yl)-1-methyl-2-propynyl]urea] here?
Answer: 40%

Question: For `CC(C#Cc1ccc(/C=C/c2ccc(F)cc2)s1)N(O)C(N)=O` (stereo not drawn) [Example 8], which “% inhibition … in human whole blood” value is on record?
Answer: 62%

Test system: biosynthesis of leukotrienes (peritoneal fluid leukotriene levels)
Assay: Inhibition of leukotriene biosynthesis in vivo, rat peritoneal anaphylaxis model, oral administration
Conditions: single 30 μmol/kg oral dose, gavage one hour prior to antigen challenge, 15 minutes after challenge
Procedure: Inhibition of the biosynthesis of leuktrienes in vivo after oral administration of compound was determined using a rat peritoneal anaphylaxis model in a similar manner as that described by Young and coworkers (Young, P. R.; Dyer, R. D.; Carter, G. W., Fed. Proc., Fed. Am. Soc. Exp. Biol. 1985, 44: 1185). In this model rats were injected intraperitoneally (ip) with rabbit antibody to bovine serum albumin (BSA) and three hours later injected ip with BSA to induce an antigen-antibody response. Rats were sacrificed 15 minutes after this challenge and the peritoneal fluids were collected and analyzed for leukotriene levels. Test compounds were administered by gavage one hour prior to the antigen challenge. Percent inhibition values were determined by comparing the treatment group to the mean of the control group. Compounds of this invention prevent the formation of leukotrienes in this model after oral administration in a range of 1-200 μmol/kg.

Question: Which “% inhibition of leukotriene formation in vivo” value does the source give for `CC(C#Cc1ccc(Cc2ccc(F)cc2)o1)N(O)C(N)=O` (stereo not drawn) [Example 1, N-{3-[5-(4-Fluorophenylmethyl)fur-2-yl]-1-methyl-2-propynyl}-N-hydroxyurea] here?
Answer: 68%

Question: Which “% inhibition of leukotriene formation in vivo” value does the source give for `CC(C#Cc1ccc(Cc2ccc(F)cc2)s1)N(O)C(N)=O` (stereo not drawn) [Example 12, N-{3-[5-(4-Fluorophenylmethyl)-2-thienyl]-1-methyl-2-propynyl}-N-hydroxyurea] here?
Answer: 72%
